# Data as given in ChEMBL document CHEMBL1133956, “Antagonists of the human CCR5 receptor as anti-HIV-1 agents. Part 3: a proposed pharmacophore model for 1-[N-(methyl)-N-(phenylsulfonyl)amino]-2-(phenyl)-4-[4-(substituted)piperidin-1-yl]butanes” (Bioorg Med Chem Lett, 2001).
# How the values were obtained:
# Format in all cases: cell-based
# [1] = molecular target: T1, C-C chemokine receptor type 5 (Homo sapiens, UniProt P51681); assay: Inhibition of [125I]-MIP-1 alpha binding to human CCR5 receptor expressed in Chinese hamster ovary (CHO) cells
# Target sequence in this assay (P51681 whole entry): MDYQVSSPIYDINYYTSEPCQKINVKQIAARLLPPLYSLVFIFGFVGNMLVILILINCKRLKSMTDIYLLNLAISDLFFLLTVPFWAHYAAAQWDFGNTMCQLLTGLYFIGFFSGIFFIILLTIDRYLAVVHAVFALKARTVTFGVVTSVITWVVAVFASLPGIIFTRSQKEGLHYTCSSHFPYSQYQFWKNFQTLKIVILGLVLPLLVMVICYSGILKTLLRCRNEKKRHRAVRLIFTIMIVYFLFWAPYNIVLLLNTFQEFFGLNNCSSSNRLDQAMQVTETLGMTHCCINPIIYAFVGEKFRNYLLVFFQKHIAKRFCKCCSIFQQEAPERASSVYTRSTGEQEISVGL
# [2] = molecular target: T1, C-C chemokine receptor type 5; assay: Inhibition of [125I]-MIP-1 alpha binding to human CCR5 receptor expressed in Chinese hamster ovary (CHO) cells at 1000 nM;
# Target sequence in this assay (P51681 whole entry, looked up): as the sequence (P51681 whole entry) above
# [3] = molecular target: T1, C-C chemokine receptor type 5; assay: Inhibition of [125I]-MIP-1 alpha binding to human CCR5 receptor expressed in Chinese hamster ovary (CHO) cells at 1000 nM
# Target sequence in this assay (P51681 whole entry, looked up): as the sequence (P51681 whole entry) above
# [4] = molecular target: T1, C-C chemokine receptor type 5; assay: Inhibition of [125I]-MIP-1 alpha binding to human CCR5 receptor expressed in Chinese hamster ovary (CHO) cells; completely inactive
# Target sequence in this assay (P51681 whole entry): as above
Compound,IC50 [1] [nM],also measured
CN(C[C@@H](CCN1CCC(c2ccc(F)cc2)CC1)c1cccc(Cl)c1)S(=O)(=O)c1ccccc1,25,
CN(C[C@@H](CCN1CCN(c2ccccc2)CC1)c1cccc(Cl)c1)S(=O)(=O)c1ccccc1,700,
COc1ccccc1C1CCN(CC[C@H](CN(C)S(=O)(=O)c2ccccc2)c2cccc(Cl)c2)CC1,70,
CN(C[C@@H](CCN1CCC2(CC1)CC(=O)c1ccccc1O2)c1cccc(Cl)c1)S(=O)(=O)c1ccccc1,,inhibition [2]: 24%
CN(C[C@@H](CCN1CCC(C(C)(C)C)CC1)c1cccc(Cl)c1)S(=O)(=O)c1ccccc1,,inhibition [3]: 40%
CN(CCc1ccccc1)CC[C@H](CN(C)S(=O)(=O)c1ccccc1)c1cccc(Cl)c1,,IC50 [4]: > 10000 nM
CN(C[C@@H](CCNCCc1ccccc1)c1cccc(Cl)c1)S(=O)(=O)c1ccccc1,,IC50 [4]: > 10000 nM
CN(C[C@@H](CCN1CCC(CCCc2ccccc2)CC1)c1cccc(Cl)c1)S(=O)(=O)c1ccccc1,5,
CN(C[C@@H](CCN1CCC2(CC1)CC(=O)Nc1ccccc12)c1cccc(Cl)c1)S(=O)(=O)c1ccccc1,35,
Cc1ccccc1N1CCN(CC[C@H](CN(C)S(=O)(=O)c2ccccc2)c2cccc(Cl)c2)CC1,2400,
CN(C[C@@H](CCN1CCC(c2cccc(C(F)(F)F)c2)CC1)c1cccc(Cl)c1)S(=O)(=O)c1ccccc1,120,
CN(C[C@@H](CCN1CCC2(CC1)CC(=O)c1ccccc12)c1cccc(Cl)c1)S(=O)(=O)c1ccccc1,5,
CN(C[C@@H](CCN1CCC2(CC1)CC(O)c1ccccc12)c1cccc(Cl)c1)S(=O)(=O)c1ccccc1 (some centres not stated),100,
CN(C[C@@H](CCN1CCC(CCc2ccccc2)CC1)c1cccc(Cl)c1)S(=O)(=O)c1ccccc1,65,
CN(C[C@@H](CCc1ccc(-c2ccccc2)cc1)c1ccc(Cl)c(Cl)c1)S(=O)(=O)c1ccccc1,,IC50 [4]: > 10000 nM
CN(C[C@@H](CCN1CCC2(CC1)CNC(=O)c1ccccc12)c1cccc(Cl)c1)S(=O)(=O)c1ccccc1,35,
CN1C(=O)c2ccccc2C12CCN(CC[C@H](CN(C)S(=O)(=O)c1ccccc1)c1cccc(Cl)c1)CC2,100,
CN(C[C@@H](CCN1CCC2(CC1)CN(S(C)(=O)=O)c1ccccc12)c1cccc(Cl)c1)S(=O)(=O)c1ccccc1,,inhibition [3]: 12%
CN(C[C@@H](CCN1CCC2(CCc3ccccc32)CC1)c1cccc(Cl)c1)S(=O)(=O)c1ccccc1,180,
CN(C[C@@H](CCN1CCC(Cc2ccccc2)CC1)c1cccc(Cl)c1)S(=O)(=O)c1ccccc1,250,
CN(C[C@@H](CCN1CCC2(CC1)Cc1ccccc1O2)c1cccc(Cl)c1)S(=O)(=O)c1ccccc1,260,
CN(C[C@@H](CCN1CCCCC1)c1cccc(Cl)c1)S(=O)(=O)c1ccccc1,,inhibition [3]: 27%
CN(C[C@@H](CCc1ccc(-c2ccccc2)cn1)c1ccc(Cl)c(Cl)c1)S(=O)(=O)c1ccccc1,,IC50 [4]: > 10000 nM
CN(C[C@@H](CCN1CCC2(CC1)NC(=O)c1ccccc12)c1cccc(Cl)c1)S(=O)(=O)c1ccccc1,45,
Cc1ccccc1C1CCN(CC[C@H](CN(C)S(=O)(=O)c2ccccc2)c2cccc(Cl)c2)CC1,400,
CN(C[C@@H](CCN1CCC(c2ccc(Cl)cc2)CC1)c1cccc(Cl)c1)S(=O)(=O)c1ccccc1,200,
CN(C[C@@H](CCN1CCC2(CC1)CNc1ccccc12)c1cccc(Cl)c1)S(=O)(=O)c1ccccc1,50,
